Measurements from ChEMBL document CHEMBL5329182, “Design, Synthesis, anti-inflammatory activity Evaluation, preliminary exploration of the Mechanism, molecule Docking, and structure-activity relationship analysis of batatasin III analogs” (Bioorg Med Chem Lett, 2023).

What was measured:
[1] = test system: RAW264.7; assay: Antiinflammatory activity against mouse RAW264.7 cells assessed as inhibition of NO release; format: functional, cell-based
[2] = test system: RAW264.7; assay: Antiinflammatory activity against mouse RAW264.7 cells assessed as inhibition of NO production at 50 uM relative to control; format: functional
[3] = test system: RAW264.7; assay: Antiinflammatory activity against LPS-stimulated mouse RAW264.7 cells assessed as NO emission at 50 uM (reference value: 20.56 +/-0.06%); format: functional
[4] = Cytotoxicity against mouse RAW264.7 cells assessed as cell survival rate at 50 uM by MTT assay relative to control; format: toxicity, cell-based; conditions: read-out: Activity
[5] = test system: RAW264.7; assay: Antiinflammatory activity against LPS-stimulated mouse RAW264.7 cells assessed as reduction in iNOS protein expression by Western blot analysis; format: functional, cell-based; conditions: dose 5-20 µM
[6] = test system: RAW264.7; assay: Antiinflammatory activity against mouse RAW264.7 cells assessed as inhibition of NO production at 20 uM relative to control; format: functional
[7] = Cytotoxicity against mouse RAW264.7 cells assessed as cell survival rate at 20 uM by MTT assay relative to control; format: toxicity, cell-based; conditions: read-out: Activity
[8] = test system: RAW264.7; assay: Antiinflammatory activity against LPS-stimulated mouse RAW264.7 cells assessed as reduction in beta-catenin protein expression by Western blot analysis; format: functional, cell-based; conditions: dose 5-20 µM
[9] = test system: RAW264.7; assay: Antiinflammatory activity against LPS-stimulated mouse RAW264.7 cells assessed as NO emission at 20 uM (reference value: 20.56 +/-0.06%); format: functional
[10] = Cytotoxicity against mouse RAW264.7 cells assessed as reduction in cell survival by MTT assay; format: toxicity, cell-based
[11] = biological target: Transcription factor p65 (Mus musculus) (UniProt Q04207); assay: Inhibition of p65 phosphorylation in LPS-stimulated mouse RAW264.7 cells by Western blot analysis; format: cell-based; conditions: dose 5-20 µM
Sequence of Transcription factor p65 (Mus musculus) (Q04207 whole entry): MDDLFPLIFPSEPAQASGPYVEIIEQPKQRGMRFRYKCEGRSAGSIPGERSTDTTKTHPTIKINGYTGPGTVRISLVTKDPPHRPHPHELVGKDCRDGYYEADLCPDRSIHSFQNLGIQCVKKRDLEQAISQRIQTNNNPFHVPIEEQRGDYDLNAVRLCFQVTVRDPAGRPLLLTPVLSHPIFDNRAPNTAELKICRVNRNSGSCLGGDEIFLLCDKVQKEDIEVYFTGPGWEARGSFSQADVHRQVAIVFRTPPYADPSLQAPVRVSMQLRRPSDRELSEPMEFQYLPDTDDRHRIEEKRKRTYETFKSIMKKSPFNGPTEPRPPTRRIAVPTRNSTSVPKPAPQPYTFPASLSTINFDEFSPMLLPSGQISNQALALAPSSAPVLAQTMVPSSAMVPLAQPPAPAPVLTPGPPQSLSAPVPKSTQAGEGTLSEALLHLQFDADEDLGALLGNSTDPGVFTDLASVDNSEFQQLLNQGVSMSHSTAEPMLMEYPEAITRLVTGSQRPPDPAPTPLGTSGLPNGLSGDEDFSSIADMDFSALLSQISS

| SMILES | IC50 [1] [µM] | inhibition at 50 µM [2] [%] | Activity [3] [µM] | viability at 50 µM [4] [%] | Activity [5] | inhibition at 20 µM [6] [%] | viability at 20 µM [7] [%] | Activity [8] | Activity [9] [µM] | CC50 [10] [µM] | inhibition [11] |
| --- | --- | --- | --- | --- | --- | --- | --- | --- | --- | --- | --- |
| Oc1cccc(/C=C/c2cc(O)cc(O)c2)c1 | 54 | 22.8 | 15.88 | 110 | – | – | – | – | – | – | – |
| COc1cc(O)cc(CCc2cccc(O)c2)c1 [BATATASIN III] | > 50 | 21.5 | 16.14 | 106 | – | – | – | – | – | – | – |
| COc1cc(CCc2ccco2)cc(OC)c1 | > 50 | -2.98 | 21.18 | 103 | – | – | – | – | – | – | – |
| COc1cc(CCc2cccnc2)cc(OC)c1 | > 50 | 13.8 | 17.72 | 97.8 | – | – | – | – | – | – | – |
| Oc1cc(O)cc(CCc2cccnc2)c1 | > 50 | 12.2 | 18.06 | 98.9 | – | – | – | – | – | – | – |
| Oc1cc(O)cc(CCc2ccccc2)c1 [DIHYDROPINOSYLVIN] | > 50 | 18 | 16.86 | 102 | – | – | – | – | – | – | – |
| COc1cc(/C=C/c2cccc(C#N)c2)cc(OC)c1 | > 50 | 11.4 | 18.22 | 114 | – | – | – | – | – | – | – |
| COc1cc(CCc2cccc(C)c2)cc(OC)c1 | 58.3 | 20.9 | 16.28 | 109 | – | – | – | – | – | – | – |
| C[C@@H]1C[C@H]2[C@@H]3CCC4=CC(=O)C=C[C@]4(C)[C@@]3(F)[C@@H](O)C[C@]2(C)[C@@]1(O)C(=O)CO [DEXAMETHASONE] | > 50 | 26.9 | 15.05 | 107 | – | – | – | – | – | – | – |
| O=[N+]([O-])c1cccc(/C=C/c2cc(O)cc(O)c2)c1 | 44.5 | 25.5 | 15.32 | 104 | – | – | – | – | – | – | – |
| COc1cc(/C=C/c2cccc(Cl)c2)cc(OC)c1 | > 50 | 7.82 | 18.96 | 97.8 | – | – | – | – | – | – | – |
| COc1cc(/C=C/c2cc(C(C)(C)C)cc(C(C)(C)C)c2)cc(OC)c1 | > 50 | 17.2 | 17.02 | 104 | – | – | – | – | – | – | – |
| COc1cc(/C=C/c2cccnc2)cc(OC)c1 | > 50 | 22.5 | 15.94 | 97.7 | – | – | – | – | – | – | – |
| CC(C)(C)c1cc(CCc2cc(O)cc(O)c2)cc(C(C)(C)C)c1 | 13 | – | – | – | Dose-Dependent Effect | 51 | 99.1 | Dose-Dependent Effect | 10.08 | 34.3 | Dose-Dependent Effect |
| COc1cccc(/C=C/c2cc(OC)cc(OC)c2)c1 | > 50 | 18.2 | 16.82 | 97.2 | – | – | – | – | – | – | – |
| COc1cc(CCc2ccccc2)cc(OC)c1 | > 50 | 6.16 | 19.3 | 99.5 | – | – | – | – | – | – | – |
| COc1cc(CCc2cccc(C#N)c2)cc(OC)c1 | > 50 | -5.99 | 21.8 | 105 | – | – | – | – | – | – | – |
| COc1cc(/C=C/c2ccc(C(C)(C)C)cc2)cc(OC)c1 | > 50 | 14 | 17.68 | 99.3 | – | – | – | – | – | – | – |
| COc1cc(/C=C/c2cccc([N+](=O)[O-])c2)cc(OC)c1 | > 50 | 14.9 | 17.5 | 104 | – | – | – | – | – | – | – |
| COc1cc(/C=C/c2cccc(C(F)(F)F)c2)cc(OC)c1 | > 50 | 14.1 | 17.66 | 109 | – | – | – | – | – | – | – |
| COc1cc(CCc2cccc(N)c2)cc(OC)c1 | 55.4 | 26.1 | 15.2 | 104 | – | – | – | – | – | – | – |
| COc1cc(CCc2cc(C(C)(C)C)cc(C(C)(C)C)c2)cc(OC)c1 | > 50 | 18.2 | 16.82 | 114 | – | – | – | – | – | – | – |
| COc1cc(CCc2ccc(C(C)(C)C)cc2)cc(OC)c1 | > 50 | 14.9 | 17.5 | 106 | – | – | – | – | – | – | – |
| COc1cc(CCc2cccc(C(F)(F)F)c2)cc(OC)c1 | > 50 | 19.6 | 16.54 | 103 | – | – | – | – | – | – | – |
| Oc1cccc(CCc2cc(O)cc(O)c2)c1 | 48.2 | 31.4 | 14.12 | 110 | – | – | – | – | – | – | – |
| CC(C)(C)c1ccc(CCc2cc(O)cc(O)c2)cc1 | 23.7 | 52.6 | 9.74 | 106 | – | – | – | – | – | – | – |
